Measurements reported in PMC9837764 (Nature Communications, 2023).
Several values for one entry are separate records, joined by “and”; a condition that tells them apart may be missing. Equal entries are not always repeated.

Columns and labels:
[1] = tested on: SARS-CoV-2; experiment: Cell-associated virus RNA in SARS-CoV-2-infected human primary monocytes; type: cell-based; conditions: for Cell-associated virus RNA loads, inhibition (Fig1C source data, per donor): monocytes
Protocol: (§1) Human primary monocytes were obtained after 3 h of plastic adherence of peripheral blood mononuclear cells (PBMCs). The use of primary human cell was approved by Institutional Review Board from the Oswaldo Cruz Foundation under protocol 49971421.8.0000.5248 with signed informed consent in accordance with the Hemotherapy Service of Hospital Clementino Fraga from the Federal University of Rio de Janeiro. All volunteers were de-identified. PBMCs were isolated from healthy donors by density gradient centrifugation (Ficoll-Paque, GE Healthcare). PBMCs (2.0 × 10^6 cells) were plated onto 48-well plates (NalgeNunc) in RPMI-1640 without serum for 2–4 h. Nonadherent cells were removed, and the remaining monocytes were maintained in DMEM with 5% human serum (HS; Millipore) and penicillin/streptomycin. The purity of human monocytes was above 95%, as determined by flow cytometric analysis (FACScan; Becton Dickinson) using anti-CD3 (BD Biosciences, cat # 555342, 1:40), anti-CD16 (Southern Biotech, cat # 561313, 1:20) and APC mouse IgG2a isotype (BD Biosciences, cat # 550882, 1/40) and PE mouse IgG1 isotype (BD Biosciences, 555749, 1/20).
Total viral RNA from a culture supernatant and/or monolayers was extracted using QIAamp Viral RNA (Qiagen®) according to the manufacturer’s instructions. Quantitative RT‒PCR was performed using GoTaq® Probe qPCR and RT-qPCR Systems (Promega) in a StepOne™ Real-Time PCR System (Thermo Fisher Scientific) ABI PRISM 7500 Sequence Detection System (Applied Biosystems). Amplifications were carried out in 25 µL reaction mixtures containing 2× reaction mix buffer, […] of each primer, 10 µM of probe, and 5 µL of RNA template. Primers, probes, and cycling conditions recommended by the Centers for Disease Control and Prevention (CDC) protocol were used to detect SARS-CoV-2[52]. The standard curve method was employed for virus quantification. For reference to the cell amounts used, the housekeeping gene RNAse P (F-5′-[…] -3′, R-5′[…] -3′, P-5′-FAM-[…] -BHQ-1-3′) was amplified. The Ct values for this target were compared to those obtained for different cell amounts, 10^7 to 10^2, for calibration.

[2] = tested on: TNF-α; experiment: TNF-α in supernatant of SARS-CoV-2-infected human primary monocytes; type: cell-based; conditions: infected monocytes
Protocol: as §1

[3] = tested on: SARS-CoV-2; experiment: Genomic and subgenomic viral RNA in infected Calu-3 cells (RT-PCR); type: cell-based; conditions: Calu-3, 10 µM, 48 h
[4] = tested on: SARS-CoV-2 RNA; experiment: RNA immunoprecipitation with anti-kinetin antibody, infected Calu-3 cells; type: cell-based
[5] = tested on: SARS-CoV-2; experiment: Combination of RdRp inhibitors with SARS-CoV-2 nsp14 inhibitors in infected Calu-3 cells, synergy; type: cell-based; conditions: for Response (Fig3C source data for synergy analysis): DTG 0 nM
[6] = in vivo; conditions: both sexes, mouse, mice
Protocol: For the MTD assay (OECD 425), mice (3 animals of each sex/group) were divided into five experimental groups, and the up and down procedure was applied to which 175 mg/kg was used as the first dose. […] Mortality, morbidity, body weight, food consumption, and general and detailed clinical signs of toxicity were evaluated. At necropsy, vital (brain, heart, liver, spleen, kidneys and adrenal glands) and reproductive organs (ovaries, testicles, and epididymis) were carefully removed, weighed and stored for further analysis (if necessary).

[7] = tested on: SARS-CoV-2 gamma VoC; set-up: species or system K18-hACE2 mice (Mus musculus); conditions: mouse, in vivo
[8] = tested on: SARS-CoV-2 gamma VoC; set-up: species or system K18-hACE2 mice (Mus musculus); conditions: mouse, in vivo; remark: listed apart in the source
[9] = tested on: SARS-CoV-2 Gamma VoC; set-up: species or system Syrian hamsters (Mesocricetus auratus); conditions: hamster, in vivo
[10] = tested on: Salmonella typhimurium TA 100
[11] = male, Sprague-Dawley, rat, in vivo, 250 mg/kg
[12] = tested on: Salmonella typhimurium TA 97a; experiment: Ames test, strain TA 97a
[13] = MB-905-treated infected Calu-3 cells
[14] = infected Calu-3, compound alone at 10 uM

c1coc(CNc2ncnc3[nH]cnc23)c1 [MB-905, N6-furfurylaminopurine]
Cell-associated virus RNA levels in SARS-CoV-2-infected monocytes ([1]; Fig. 1c): reduced cell-associated virus RNA levels in a concentration-dependent manner | Cell-associated virus RNA loads, inhibition (Fig1C source data, per donor) ([1]; 24 h, Drug 1): 41 and 30 and 63 and 20 and 2 (2×) | Cell-associated virus RNA loads, inhibition (Fig1C source data, per donor) ([1]; 24 h, Drug 10): 93 and 42 and 46 and 13 and 6 and 12 | Cell-associated virus RNA loads, inhibition (Fig1C source data, per donor) ([1]; MOI 0.1, 24 h, Drug 0.1): 2 (3×) and 5 and 3 and 1 | SARS-CoV-2-induced TNF and IL-6 levels ([2]; 10 µM): diminished | TNF-α levels in the culture supernatant (Fig1D source data, per donor) ([2]; drugs at 10 µM, 24 h): 0.7 and 0.9 and 0.537 and 2.5 and 0.474 and 3.4 | Genomic viral RNA (Fig2B source data, replicates) [3]: 0.2 and 0.15 and 0.1 | Subgenomic viral RNA (Fig2B source data, replicates) [3]: 0.6 and 0.5 and 0.7 | Viral RNA immunoprecipitated with anti-kinetin antibody (Ab) (Fig2C source data) [4, 13]: 149.09 and 145.01 and 123.64 and 134.36 | Viral RNA immunoprecipitated with isotype control (Iso) (Fig2C source data) [4, 13]: 2.52 and 2.29 and 2.30 and 2.50 | Enrichment of viral RNA in anti-N6-furfuryladenine IP compared to isotype control and nil-treated cells ([4]; infected Calu-3 cells): more than 10 fold | Response (Fig3C source data for synergy analysis) ([5]; MB-905 10 nM): 8 | Response (Fig3C source data for synergy analysis) ([5]; MB-905 100 nM): 17 | Response (Fig3C source data for synergy analysis) ([5]; MB-905 1000 nM): 44 | Response (Fig3C source data for synergy analysis) ([5]; MB-905 10000 nM): 89 | EC50 ([5]; Severe acute respiratory syndrome coronavirus 2, Calu-3, read-out: EC50 mean): 300 nM | EC90 ([5]; Severe acute respiratory syndrome coronavirus 2, Calu-3, read-out: EC90 mean): 8 µM | Virus productive titers (Fig3A source data, replicates) [5, 14]: 60000 and 46000 and 56000 | Virus productive titers (Fig3B source data, replicates) [5, 14]: 60000 and 46000 and 52000 | NOAEL [6]: 500 mg/kg | MTD ([6]; oral, read-out: Recommended dose for repeated exposure (MTD assay)): 550 mg/kg | SARS-CoV-2-induced inflammation in the BAL fluid [7]: attenuated | Fig6G lung histological score [8]: 1 and 2 | Viral RNA levels [9]: did not affect viral RNA levels | Infectious virus titers in the lungs ([9]; 140 mg/kg): reduced infectious virus titers in the lungs | Cytotoxicity and mutagenicity, preliminary assay TA 100 [10]: not observed | Tolerability [11]: tolerated MB-905 well | Mutagenicity TA 97a +S9 ([12]; 8 µg/mL): - | Mutagenicity TA 97a -S9 ([12]; 8 µg/mL): - | Mutagenicity TA 97a +S9 ([12]; 40 µg/mL): - | Mutagenicity TA 97a -S9 ([12]; 40 µg/mL): - | Mutagenicity TA 97a +S9 ([12]; 200 µg/mL): - | Mutagenicity TA 97a -S9 ([12]; 200 µg/mL): - | Mutagenicity TA 97a +S9 ([12]; 1,000 µg/mL): - | Mutagenicity TA 97a -S9 ([12]; 1,000 µg/mL): - | Mutagenicity TA 97a +S9 ([12]; 5,000 µg/mL): - | Mutagenicity TA 97a -S9 ([12]; 5,000 µg/mL): - | Ames test ([12]; all strains of Supplementary Table 3): negative
